Data set [1] in a line: Mouse brain-to-plasma drug concentration ratio. The format is in vivo, mice. The method, then: The actual body weight of the mice was measured on the day of dosing and the dose volume was calculated. Each group consisted of 9 mice. The compound was administered as a single intravenous (IV) injection or a single oral gavage (PO). Whole blood samples were collected via orbital bleeding at specified time points. After blood collection, samples were immediately transferred to labeled commercial tubes containing K2-EDTA (0.85-1.15 mg), then centrifuged (3200 x g, 4°C, 10 minutes) to obtain plasma. The plasma was transferred to pre-cooled centrifuge tubes, flash-frozen on dry ice, and stored in an ultra-low temperature freezer at -60°C or lower until LC-MS/MS analysis. 20 µL of plasma sample or brain tissue homogenate was added to 80 µL of internal standard solution (50 ng/mL propafenone in acetonitrile). The plate was sealed at 165 °C using a plate sealer, vortexed for 10 min on a microplate shaker (maximum speed), and centrifuged at 4000 rpm for 20 min using a low-speed benchtop centrifuge. 10 µL of the supernatant was transferred and mixed with 90 µL of acetonitrile. After vortex mixing, the plate was sealed at 165 °C, vortexed again, and 1 µL of the supernatant was taken for LC-MS/MS analysis. The plasma concentration data of the compound were processed using a non-compartmental model with WinNonlin Version 6.3 (Pharsight, Mountain View, CA) pharmacokinetic software. Relevant pharmacokinetic parameters were calculated using the linear log trapezoidal method.

The nature of data set [2]: Phase I metabolic stability in liver microsomes. The format is in vitro ADME, humans. The note with it: HLM. How it is done:
Evaluation of the Phase I metabolic stability of the test compound in liver microsomes from CD-1 mice (MLM), Sprague-Dawley rats (RLM), beagle dogs (DLM), cynomolgus monkeys (CLM), and humans (HLM).
The animal and human liver microsomes used in this test system were purchased from Xenotech, Corning, or other qualified suppliers and stored in a freezer below -60°C before use.
The test and control compounds were incubated with animal and human liver microsomes at 37±1°C for a certain period, with a maximum incubation time of 60 minutes. Samples were taken at specified time points, and the reaction was terminated with acetonitrile or other organic solvents containing an internal standard. After centrifugation, the resulting supernatant was analyzed using liquid chromatography-tandem mass spectrometry (LC-MS/MS).
73.21 g of dipotassium hydrogen phosphate trihydrate and 10.78 g of potassium dihydrogen phosphate were dissolved in 4000 mL of ultrapure water. The pH of the solution was adjusted to 7.40±0.10 using 10% phosphoric acid or 1 M potassium hydroxide, with a final concentration of 100 mM. […]
Sample analysis was performed using liquid chromatography-tandem mass spectrometry (LC-MS/MS), without calibration curves and quality control samples. Semi-quantitative determination was performed using the ratio of the analyte peak area to the internal standard peak area. […]

A further data set addresses T1, HDAC1 (Homo sapiens, UniProt Q13547).
T1 construct: purchased BPS
Put plainly: HDAC subtype enzyme activity assay. In kind it is biochemical. The note with it: read-out: HDAC1 Inhibition Rate/%.

The nature of data set [3]: Mouse pharmacokinetic test (IV and PO). The note with it: BALB/c mice. In kind it is in vivo. The method, then: This experimental example tested the pharmacokinetic behavior of the compound in BALB/c mice after intravenous (IV) and oral (PO) administration.
The actual body weight of the mice was measured on the day of dosing and the dose volume was calculated. Each group consisted of 3 mice. The compound was tested in two groups: one group received a single intravenous injection, and the other group received a single oral gavage. Whole blood samples were collected via orbital bleeding at specified time points (0.25, 0.5, 1, 2, 4, 8, 24h post-dose). After blood collection, samples were immediately transferred to labeled commercial tubes containing K2-EDTA (0.85-1.15 mg), then centrifuged (3200 x g, 4°C, 10 minutes) to obtain plasma. The plasma was transferred to pre-cooled centrifuge tubes, flash-frozen on dry ice, and stored in an ultra-low temperature freezer at -60°C or lower until LC-MS/MS analysis.
Plasma concentrations were determined using an LC-MS/MS method. […] Relevant pharmacokinetic parameters were calculated using the linear log trapezoidal method. Table 9: Mouse Pharmacokinetic Test Experimental Data

T1 sequence (Q13547 whole entry, species assumed): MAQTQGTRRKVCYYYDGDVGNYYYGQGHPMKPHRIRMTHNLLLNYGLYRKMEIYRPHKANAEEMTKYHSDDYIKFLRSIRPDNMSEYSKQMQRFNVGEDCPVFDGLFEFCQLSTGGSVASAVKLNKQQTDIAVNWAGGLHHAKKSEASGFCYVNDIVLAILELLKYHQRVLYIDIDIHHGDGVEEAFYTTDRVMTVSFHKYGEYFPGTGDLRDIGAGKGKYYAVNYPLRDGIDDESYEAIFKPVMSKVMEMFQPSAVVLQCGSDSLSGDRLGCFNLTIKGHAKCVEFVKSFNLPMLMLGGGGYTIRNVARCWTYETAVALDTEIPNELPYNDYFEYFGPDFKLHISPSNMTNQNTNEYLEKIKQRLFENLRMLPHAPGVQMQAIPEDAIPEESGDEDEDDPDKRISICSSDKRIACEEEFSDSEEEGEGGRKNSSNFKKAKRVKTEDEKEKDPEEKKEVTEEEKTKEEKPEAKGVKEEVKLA
Text for HDAC1: The IC50 was obtained by fitting with GraphPad Prism 7.0 software.

On to `O=C(N[C@@H]1CCCC[C@H]1N1Cc2ccc(-c3nnc(C(F)F)o3)cc2S1(=O)=O)C(F)F` [I], for which the “Brain Drug Concentration” value in data set [1] (2 mg/kg IV, 1 h) is given as 268 ng/mL; in data set [1] (2 mg/kg IV, 4 h), 149 ng/mL; in data set [1] (10mg/kg PO, 1 h) it was 882 ng/mL; in data set [1] (10mg/kg PO, 4 h), 435 ng/mL. Besides, the “Plasma Drug Concentration” value was determined as 1090 ng/mL in data set [1] (2 mg/kg IV, 1 h); 595 ng/mL in data set [1] (2 mg/kg IV, 4 h); 4993 ng/mL in data set [1] (10mg/kg PO, 1 h); 2833 ng/mL in data set [1] (10mg/kg PO, 4 h). Further, in data set [2] (60 min, buffer instead of NADPH regeneration system), the “Remaining Rate (NCF=60 min)” value was 97.3%. Besides, in data set [2] (60 min with NADPH regeneration system), the “Remaining Rate (T=60 min)” value is reported as 86.1%. In addition, on HDAC1, the inhibition at 1 µM is -11.9%. In addition, the inhibition at 10 µM on HDAC1 was -3.91%. For the same compound, the CLz in data set [3] (IV@2mg/kg) came out at 6 mL/min/kg. Moreover, the t1/2z worked out at 60.6 min in data set [3] (IV@2mg/kg), 97.2 min in data set [3] (PO@10mg/kg), 52.2 min in data set [3] (PO@30mg/kg) and 48.6 min in data set [3] (PO@100mg/kg). Further, the F in data set [3] (PO@10mg/kg) was 123.92%; in data set [3] (PO@30mg/kg) it was 96.93%; in data set [3] (PO@100mg/kg), 95.71%.

(Values after patent EP4786468A1, “CRYSTALLINE FORM OF HDAC6 INHIBITOR AND PREPARATION METHOD THEREFOR” (Suzhou Genhouse Bio Co., Ltd., priority 2023, dated 2025).)
